Assay results published in EP1184030A1, “Antibacterial composition comprising trimethylnorbornanylcyclohexanol derivatives” (Givaudan SA, priority 2000, dated 2002).
Values after ≈ are worked out from the molar mass of the structure shown. Read-outs that look alike come from different tables or passages of the source.

Columns and labels:
Test in all cases: MIC microtiter plate test, axilla bacteria
Type in all cases: cell-based
[1] = test system: Ax 10 Corynebacterium jeikeium; conditions: Corynebacterium jeikeium, 24 h, read-out: Minimal inhibitory concentration (MIC)
Text: (§1) The different bacterial strains had been isolated from the human axilla by current microbiological practice. They were taxonomically identified by cell morphology, gram-reaction and biochemical tests included in the Api coryne test kit (BioMerieux, France). Strain Staphylococcus epidermidis Ax25 was identified by fatty acid methyl ester analysis (FAME; German type strain collection DSMZ, Germany). The strains were maintained on Tryptic soy broth plates, this standard medium being amended with 5 g per Litre of Tween 80 and 1 g of Soybean lecithin. Plates were incubated at 36° C for a period 48 hours. The bacteria were then swabbed from the plates and suspended in 4 ml of Müller-Hinton broth amended with 100 mg of Tween80 per Litre (MH-Tween) and incubated again at 36° C for 16 hours. Following incubation the bacterial suspensions were diluted in MH-Tween to obtain a final cell density of 10^6 colony forming units per ml. For each fragrance material four microtiter plates were used in the example, each microtiter plate having 8 rows, A-H, and 12 columns, 1-12. To each column a diluted suspension of a different test organism was distributed, 100 µl per well. 1% stock solutions of the fragrance materials were then prepared in MH-Tween broth. The fragrance material was dispersed by ultrasonication into the aqueous medium to obtain a homogenous emulsion. 100 µl per well of this emulsion was then added to the first row of the microtiter plates already containing the target organisms. Serial dilution series were then prepared starting at row A and continuing until row G, each time removing 100 µl from a well and transferring it to the next well. In this way fragrance concentrations of 0.5%, 0.25%, 0.125%, 0.0625%, 0.03125%, 0.0156% and 0.0078% were tested for their antibacterial efficacy. The reference compound Triclosan was tested at 16 fold lower concentrations. The plates were covered with plastic films and incubated for 24 h at 36° C with shaking at 250 rpm. The turbidity developing in the microtiter plates was then examined after 24 h to determine microbial growth. The minimal concentration of fragrance inhibiting the growth of an organism by at least 80% was determined as the minimal inhibitory concentration (MIC).
(§2) Ax 25 was identified as Staphylococcus epidermidis by FAME analysis. Identification with the Api Coryne test kit yielded the following species assignments for the remainder of the strains: Ax 26 Corynebacterium sp.; Ax 3 Corynebacterium bovis; Ax 7 Corynebacterium group G; Ax 10 Corynebacterium jeikeium; Ax 11 Corynebacterium jeikeium; Ax 12 Corynebacterium jeikeium; Ax 15 Corynebacterium jeikeium; Ax 20 Corynebacterium striatum/amycolatum; Ax 19 Corynebacterium jeikeium. The strains were isolated from the axilla of 8 human volunteers. Based on biochemical tests and colony morphology all strains were distinct from each other, even the several strains all belonging to Corynebacterium jeikeium.

[2] = test system: Staphylococcus epidermidis Ax25; conditions: for MIC: Staphylococcus epidermidis, AX25, 24 h
Text: as §1, §2

[3] = test system: Ax 19 Corynebacterium jeikeium; conditions: 24 h, read-out: Minimal inhibitory concentration (MIC)
Text: as §1, §2

[4] = test system: Ax 20 Corynebacterium striatum/amycolatum; conditions: Corynebacterium striatum, 24 h, read-out: Minimal inhibitory concentration (MIC)
Text: as §1, §2

[5] = test system: Ax 7 Corynebacterium group G; conditions: for MIC: Corynebacterium, 24 h
Text: as §1, §2

[6] = test system: Ax 11 Corynebacterium jeikeium; conditions: Corynebacterium jeikeium, 24 h, read-out: Minimal inhibitory concentration (MIC)
Text: as §1, §2

[7] = test system: Ax 15 Corynebacterium jeikeium; conditions: for MIC: Corynebacterium jeikeium, 24 h
Text: as §1, §2

[8] = test system: Ax 3 Corynebacterium bovis; conditions: Corynebacterium bovis, 24 h, read-out: Minimal inhibitory concentration (MIC)
Text: as §1, §2

[9] = test system: Ax 26 Corynebacterium sp.; conditions: for MIC: Corynebacterium
Text: as §1, §2

[10] = test system: Ax 12 Corynebacterium jeikeium; conditions: Corynebacterium jeikeium, 24 h, read-out: Minimal inhibitory concentration (MIC)
Text: as §1, §2

[11] = read-out: Bacteriostatic activity (concentration needed for at least 80% reduction in growth)
[12] = read-out: Minimal inhibitory concentration (MIC)

Compound: Oc1cc(Cl)ccc1Oc1ccc(Cl)cc1Cl [Triclosan, 2,4,4'-trichloro-2'-hydroxy-diphenyl-ether]
- MIC [1]: 20 µg/mL (≈ 69.1 µM)
- MIC [2, 11]: 0.15 µg/mL (≈ 0.518 µM)
- MIC [2, 12]: 0.15 µg/mL (≈ 0.518 µM)
- Bacteriostatic activity (concentration needed for at least 80% reduction in growth) ([2]; Table 8, S. epidermidis, 24 hours): 0.000015 percent (w/v)
- MIC [3]: 39 µg/mL (≈ 135 µM)
- MIC [4]: 107 µg/mL (≈ 370 µM)
- MIC [5, 11]: 25 µg/mL (≈ 86.3 µM)
- MIC [5, 12]: 29 µg/mL (≈ 100 µM)
- Bacteriostatic activity (concentration needed for at least 80% reduction in growth) ([5]; Table 8, Corynebact. Ax7, 24 hours): 0.0025 percent (w/v)
- MIC [6]: 29 µg/mL (≈ 100 µM)
- MIC [7, 11]: 30 µg/mL (≈ 104 µM)
- MIC [7, 12]: 29 µg/mL (≈ 100 µM)
- Bacteriostatic activity (concentration needed for at least 80% reduction in growth) ([7]; Table 8, Corynebact. Ax15, 24 hours): 0.0030 percent (w/v)
- MIC [8]: 29 µg/mL (≈ 100 µM)
- MIC ([9]; Ax26, growth inhibition by at least 80%, 24 h at 36° C, read-out: Minimal inhibitory concentration (MIC)): 15 µg/mL (≈ 51.8 µM)
- MIC ([9]; Table 7, Corynebact. Ax26, 24 hours, read-out: Bacteriostatic activity (concentration needed for at least 80% reduction in growth)): 25 µg/mL (≈ 86.3 µM)
- Bacteriostatic activity (concentration needed for at least 80% reduction in growth) ([9]; Table 8, Corynebact. Ax26, 24 hours): 0.0025 percent (w/v)
- MIC [10]: 17 µg/mL (≈ 58.7 µM)
